Tests used:
Phosphodiesterase 4 = Phosphodiesterase 4 (Homo sapiens, UniProt P27815+Q08499+Q07343+Q08493); test: Inhibition of human PDE4 expressed in Saccharomyces cerevisiae preincubated for 30 mins followed by cAMP substrate addition
Homo sapiens [1] = test: Inhibition of early allergic response in atopic asthmatic patient assessed as reduction in minimum FEV1 level at 87.5 ug administered once daily via inhalation for 7 days followed by allergen challenge relative to placebo; assay type: functional; settings: dose 87.5 µg; time 7 day
Homo sapiens [2] = test: Inhibition of early allergic response in atopic asthmatic patient assessed as reduction in weighted mean FEV1 level at 87.5 ug administered once daily via inhalation for 7 days followed by allergen challenge relative to placebo; assay type: functional; settings: dose 87.5 µg; time 7 day
Homo sapiens [3] = test: Inhibition of late allergic response in atopic asthmatic patient assessed as reduction in minimum FEV1 level at 87.5 ug administered once daily via inhalation for 7 days followed by allergen challenge relative to placebo; assay type: functional; settings: dose 87.5 µg; time 7 day
Homo sapiens [4] = test: Inhibition of late allergic response in atopic asthmatic patient assessed as reduction in weighted mean FEV1 level at 87.5 ug administered once daily via inhalation for 7 days followed by allergen challenge relative to placebo; assay type: functional; settings: dose 87.5 µg; time 7 day

`COc1cccc(Nc2c(C(N)=O)cnc3c(C)cc(S(=O)(=O)c4cccc(C(=O)N(C)C)c4)cc23)c1` [GSK-256066] was tested, and the IC50 (Phosphodiesterase 4) was 3.2 pM, the “inhibition (INH)” value (Homo sapiens [1]) was 40.9% and the “inhibition (INH)” value (Homo sapiens [2]) was 57.2%. The “inhibition (INH)” value (Homo sapiens [3]) was 26.2% and the “inhibition (INH)” value (Homo sapiens [4]) was 34.3%.

From ChEMBL document CHEMBL4725222, “Advances in the Development of Phosphodiesterase-4 Inhibitors” (J Med Chem, 2020)
